Values quoted from earlier work as cited in US20200360268A1, “INJECTABLE PHARMACEUTICAL COMPOSITION CONTAINING MELOXICAM, AND PREPARATION METHOD THEREFOR” (Jiangsu Hengrui Medicine Co., Ltd., priority 2017, published 2020).
In brackets after ≈: the same amount, converted by molar mass.

Conditions: pH 1.2 and 4.0

SMILES: Cc1cnc(NC(=O)C2=C(O)c3ccccc3S(=O)(=O)N2C)s1 [Meloxicam]
- solubility: 0.6 µg/mL (≈ 1.71 µM)
